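Assay format: 96-well plates, 48-hour exposure. GI50 marks 50% less growth. Definition used: TGI = concentration required for complete inhibition of growth.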
Tests used:
Test in all cases: DTP human tumour cell line panel, 48 h
HCC-2998 colon = system: HCC-2998 colon
SF-539 CNS = system: SF-539 CNS
NCI/ADR-RES ovarian = system: NCI/ADR-RES ovarian
EKVX NSCLC = system: EKVX NSCLC
K-562 leukemia = system: K-562 leukemia
CCRF-CEM leukemia = system: CCRF-CEM leukemia
LOX IMVI melanoma = system: LOX IMVI melanoma
HOP-62 NSCLC = system: HOP-62 NSCLC
MDA-MB-231 breast = system: MDA-MB-231 breast
SK-MEL-2 melanoma = system: SK-MEL-2 melanoma
SF-295 CNS = system: SF-295 CNS
786-0 renal = system: 786-0 renal
MOLT-4 leukemia = system: MOLT-4 leukemia
UACC-62 melanoma = system: UACC-62 melanoma
SK-MEL-28 melanoma = system: SK-MEL-28 melanoma
MCF7 breast = system: MCF7 breast
SF-268 CNS = system: SF-268 CNS
SR leukemia = system: SR leukemia
ACHN renal = system: ACHN renal
HT29 colon = system: HT29 colon
NCI-H23 lung = system: NCI-H23 lung
BT-549 breast = system: BT-549 breast
DU-145 prostate = system: DU-145 prostate
A549 NSCLC = system: A549 NSCLC
NCI-H522 lung = system: NCI-H522 lung
OVCAR-4 ovarian = system: OVCAR-4 ovarian
PC-3 prostate = system: PC-3 prostate
NCI-H226 lung = system: NCI-H226 lung
IGROV1 ovarian = system: IGROV1 ovarian
HOP-92 NSCLC = system: HOP-92 NSCLC
NCI-H460 lung = system: NCI-H460 lung
OVCAR-5 ovarian = system: OVCAR-5 ovarian
M14 melanoma = system: M14 melanoma
OVCAR-8 ovarian = system: OVCAR-8 ovarian
MALME-3M melanoma = system: MALME-3M melanoma
TK-10 renal = system: TK-10 renal
SN12C renal = system: SN12C renal
SK-MEL-5 melanoma = system: SK-MEL-5 melanoma
MDA-MB-435 = system: MDA-MB-435
HS 578T breast = system: HS 578T breast
SK-OV-3 ovarian = system: SK-OV-3 ovarian
KM12 colon = system: KM12 colon
CAKI-1 renal = system: CAKI-1 renal
RPMI-8226 leukemia = system: RPMI-8226 leukemia
HCT-116 colon = system: HCT-116 colon
SNB-19 CNS = system: SNB-19 CNS
U251 CNS = system: U251 CNS
HCT-15 colon = system: HCT-15 colon
T-47D breast = system: T-47D breast
SW-620 colon = system: SW-620 colon
COLO 205 colon = system: COLO 205 colon
HL-60(TB) leukemia = system: HL-60(TB) leukemia
A498 renal = system: A498 renal
UO-31 renal = system: UO-31 renal
UACC-257 melanoma = system: UACC-257 melanoma
SNB-75 CNS = system: SNB-75 CNS
OVCAR-3 ovarian = system: OVCAR-3 ovarian
RXF 393 renal = system: RXF 393 renal

With CCC(=O)Nc1cc(Nc2cc(NC3CC3)n3ncc(C#N)c3n2)ccc1C the GI50 (HCC-2998 colon) was 2.46 µM, the TGI (HCC-2998 colon) was 18.9 µM and the GI50 (SF-539 CNS) was 1.81 µM. For the same molecule, the TGI (SF-539 CNS) was 46.9 µM, the GI50 (NCI/ADR-RES ovarian) was 2.99 µM and the TGI (NCI/ADR-RES ovarian) was 30.3 µM. The GI50 (EKVX NSCLC) was 1.16 µM, the TGI (EKVX NSCLC) was 45 µM and the GI50 (K-562 leukemia) was 1.1 µM. For the same molecule, the TGI (K-562 leukemia) was greater than 100 µM, the GI50 (CCRF-CEM leukemia) was 1.68 µM and the TGI (CCRF-CEM leukemia) was greater than 100 µM. For the same molecule, the GI50 (LOX IMVI melanoma) was 1.57 µM, the TGI (LOX IMVI melanoma) was 12.9 µM and the GI50 (HOP-62 NSCLC) was 1.84 µM. The TGI (HOP-62 NSCLC) was 25.7 µM, the GI50 (MDA-MB-231 breast) was 1.63 µM and the TGI (MDA-MB-231 breast) was 23.3 µM. The GI50 (SK-MEL-2 melanoma) was 2.65 µM, the TGI (SK-MEL-2 melanoma) was 18.6 µM and the GI50 (SF-295 CNS) was 2.34 µM. It also gave a TGI (SF-295 CNS) of 14.8 µM, a GI50 (786-0 renal) of 3.46 µM and a TGI (786-0 renal) of 43.5 µM. The GI50 (MOLT-4 leukemia) was 3.93 µM, the TGI (MOLT-4 leukemia) was 52.2 µM and the GI50 (UACC-62 melanoma) was 1.22 µM. For the same molecule, the TGI (UACC-62 melanoma) was 12.1 µM, the GI50 (SK-MEL-28 melanoma) was 4.02 µM and the TGI (SK-MEL-28 melanoma) was greater than 100 µM. It also gave a GI50 (MCF7 breast) of 0.421 µM, a TGI (MCF7 breast) of 10.7 µM and a GI50 (SF-268 CNS) of 2.32 µM. The TGI (SF-268 CNS) was 57.4 µM, the GI50 (SR leukemia) was 1.78 µM and the TGI (SR leukemia) was greater than 100 µM. The GI50 (ACHN renal) was 1.67 µM, the TGI (ACHN renal) was 15.6 µM and the GI50 (HT29 colon) was 2.18 µM. It also gave a TGI (HT29 colon) greater than 100 µM, a GI50 (NCI-H23 lung) of 1.12 µM and a TGI (NCI-H23 lung) of 14.9 µM. It also gave a GI50 (BT-549 breast) of 1.11 µM, a TGI (BT-549 breast) of 7.45 µM and a GI50 (DU-145 prostate) of 3.96 µM. The TGI (DU-145 prostate) was 73.3 µM, the GI50 (A549 NSCLC) was 1.8 µM and the TGI (A549 NSCLC) was 17.3 µM. The GI50 (NCI-H522 lung) was 2.48 µM, the TGI (NCI-H522 lung) was 27.1 µM and the GI50 (OVCAR-4 ovarian) was 1.66 µM. The TGI (OVCAR-4 ovarian) was 67.1 µM, the GI50 (PC-3 prostate) was 1.73 µM and the TGI (PC-3 prostate) was 23.3 µM. For the same molecule, the GI50 (NCI-H226 lung) was 1.51 µM, the TGI (NCI-H226 lung) was 16.6 µM and the GI50 (IGROV1 ovarian) was 1.27 µM. It also gave a TGI (IGROV1 ovarian) of 6.29 µM, a GI50 (HOP-92 NSCLC) of 0.449 µM and a TGI (HOP-92 NSCLC) of 6.39 µM. The GI50 (NCI-H460 lung) was 0.772 µM, the TGI (NCI-H460 lung) was 12.3 µM and the GI50 (OVCAR-5 ovarian) was 0.955 µM. It also gave a TGI (OVCAR-5 ovarian) of 33 µM, a TGI (M14 melanoma) of 12.5 µM and a GI50 (OVCAR-8 ovarian) of 3.63 µM. For the same molecule, the TGI (OVCAR-8 ovarian) was greater than 100 µM, the GI50 (MALME-3M melanoma) was 2.2 µM and the TGI (MALME-3M melanoma) was 69.3 µM. The GI50 (TK-10 renal) was 0.987 µM, the TGI (TK-10 renal) was 7.52 µM and the GI50 (SN12C renal) was 3.16 µM. The TGI (SN12C renal) was greater than 100 µM, the GI50 (SK-MEL-5 melanoma) was 1.6 µM and the TGI (SK-MEL-5 melanoma) was 9.15 µM. The GI50 (MDA-MB-435) was 2.06 µM, the TGI (MDA-MB-435) was 30.7 µM and the GI50 (HS 578T breast) was 0.216 µM. The TGI (HS 578T breast) was 1.03 µM, the GI50 (SK-OV-3 ovarian) was 1.6 µM and the TGI (SK-OV-3 ovarian) was 9.04 µM. For the same molecule, the GI50 (KM12 colon) was 1.81 µM, the TGI (KM12 colon) was 47 µM and the GI50 (CAKI-1 renal) was 0.43 µM. For the same molecule, the TGI (CAKI-1 renal) was 3.29 µM, the GI50 (RPMI-8226 leukemia) was 1.77 µM and the TGI (RPMI-8226 leukemia) was 17.6 µM. It also gave a GI50 (HCT-116 colon) of 0.737 µM, a TGI (HCT-116 colon) of 12 µM and a GI50 (SNB-19 CNS) of 1.77 µM. It also gave a TGI (SNB-19 CNS) greater than 100 µM, a GI50 (U251 CNS) of 0.94 µM and a TGI (U251 CNS) greater than 100 µM. The GI50 (HCT-15 colon) was 1.25 µM, the TGI (HCT-15 colon) was 29.6 µM and the GI50 (T-47D breast) was 1.05 µM. The TGI (T-47D breast) was 9.87 µM, the GI50 (SW-620 colon) was 1.28 µM and the TGI (SW-620 colon) was 19 µM. For the same molecule, the GI50 (COLO 205 colon) was 0.981 µM, the TGI (COLO 205 colon) was 16.3 µM and the GI50 (HL-60(TB) leukemia) was 0.6 µM. It also gave a TGI (HL-60(TB) leukemia) of 12.3 µM, a GI50 (A498 renal) of 0.0965 µM and a TGI (A498 renal) of 1.16 µM. For the same molecule, the GI50 (UO-31 renal) was 2.09 µM, the TGI (UO-31 renal) was 13.7 µM and the GI50 (UACC-257 melanoma) was 1.77 µM. The TGI (UACC-257 melanoma) was 53.6 µM, the GI50 (SNB-75 CNS) was 0.0521 µM and the TGI (SNB-75 CNS) was 0.974 µM. It also gave a GI50 (OVCAR-3 ovarian) of 1.1 µM, a TGI (OVCAR-3 ovarian) of 14.6 µM and a GI50 (RXF 393 renal) of 3.29 µM. For the same molecule, the TGI (RXF 393 renal) was 15.5 µM.
